Laboratory results published in US4061649A, “Clavulanic acid sulphates” (Beecham Group Limited, priority 1975, dated 1977).
Counter-ions that a name gives are not always drawn.

Assays:
Escherichia coli B 11 = assay: MIC / synergism, microtitre method (Example 42); format: cell-based; details: compound alone; inoculum 0.5 × 10^-2
Enterobacter cloacae [1] = assay: MIC / synergism, microtitre method (Example 42); format: cell-based; details: compound alone; inoculum 0.5 × 10^-2
[2] = tested on: strains of Klebsiella aerogenes A; assay: growth inhibition, penicillins with and without clavulanic acid or ester; format: cell-based
bacteria = assay: tests for antibacterial activity in broth (Example 32); format: cell-based; details: possibly due to clavulanic acid liberated by slow hydrolysis
Serratia marcescens [3] = assay: MIC / synergism, microtitre method (Example 42); format: cell-based; details: compound alone; inoculum 0.5 × 10^-2
Staphylococcus aureus = assay: MIC / synergism, microtitre method (Example 42); format: cell-based
Proteus mirabilis 899 = format: cell-based
[4] = blood and tissue levels in female mice; format: in vivo; details: oral administration of 100 mg/kg
Bacillus subtilis = assay: MIC, microtitre method (Example 30); details: approximate MIC; inoculum final dilution 0.5 × 10^-4
Protocol: (§2) The cultures were incubated overnight and the points of bacterial growth recorded next morning by observing the turbidity of the culture.

Streptococcus faecalis = assay: MIC, microtitre method (Example 30); details: approximate MIC; inoculum final dilution 0.5 × 10^-4
Protocol: as §2

[5] = tested on: Streptococcus pyogenes CN 10; assay: MIC, microtitre method (Example 30); details: approximate MIC; inoculum final dilution 0.5 × 10^-4
Protocol: as §2

[6] = tested on: Escherichia coli NCTC 10418; assay: MIC, microtitre method (Example 30); details: approximate MIC; inoculum final dilution 0.5 × 10^-4
Protocol: as §2

Klebsiella aerogenes = assay: MIC, microtitre method (Example 30); details: approximate MIC; inoculum final dilution 0.5 × 10^-4
Protocol: as §2

Klebsiella oxytocum = assay: MIC, microtitre method (Example 30); details: approximate MIC; inoculum final dilution 0.5 × 10^-4
Protocol: as §2

[7] = tested on: Enterobacter aerogenes T 624; assay: MIC, microtitre method (Example 30); details: approximate MIC; inoculum final dilution 0.5 × 10^-4
Protocol: as §2

Enterobacter cloacae [8] = assay: MIC, microtitre method (Example 30); details: approximate MIC; inoculum final dilution 0.5 × 10^-4
Protocol: as §2

Acinetobacter anitratus = assay: MIC, microtitre method (Example 30); details: approximate MIC; inoculum final dilution 0.5 × 10^-4
Protocol: as §2

Providentia stuartii = assay: MIC, microtitre method (Example 30); details: approximate MIC; inoculum final dilution 0.5 × 10^-4
Protocol: as §2

Serratia marcescens [9] = assay: MIC, microtitre method (Example 30); details: approximate MIC; inoculum final dilution 0.5 × 10^-4
Protocol: as §2

Proteus mirabilis 0977 = assay: MIC, microtitre method (Example 30); details: approximate MIC; inoculum final dilution 0.5 × 10^-4
Protocol: as §2

Proteus vulgaris W090 = assay: MIC, microtitre method (Example 30); details: approximate MIC; inoculum final dilution 0.5 × 10^-4
Protocol: as §2

Salmonella typhimurium = assay: MIC, microtitre method (Example 30); details: approximate MIC; inoculum final dilution 0.5 × 10^-4
Protocol: as §2

Shigella sonnei = assay: MIC, microtitre method (Example 30); details: approximate MIC; inoculum final dilution 0.5 × 10^-4
Protocol: as §2

Pseudomonas aeruginosa A = assay: MIC, microtitre method (Example 30); details: approximate MIC; inoculum final dilution 0.5 × 10^-4
Protocol: as §2

Bacillus subtilis A = assay: MIC, method of Example 30 with 1/100 dilution of overnight broth (Example 46); details: heavy inocula (1/100 of overnight broth); no unit in table (Example 30: μg/ml)
Protocol: as §2

Staph.aureus Oxford = assay: as above; details: heavy inocula (1/100 of overnight broth); no unit in table (Example 30: μg/ml)
Protocol: as §2

Staph.aureus Russell = assay: as above; details: heavy inocula (1/100 of overnight broth); no unit in table (Example 30: μg/ml)
Protocol: as §2

[10] = tested on: Staphylococcus aureus(Russell); assay: MIC / synergism, microtitre method (Example 42); format: cell-based
[11] = tested on: strains of Staphylococcus aureus; assay: growth inhibition; format: cell-based
[12] = tested on: β-lactamase producing strains of Escherichia coli, Klebsiella aerognes and Staphylococcus aureus; assay: synergism with ampicillin; format: cell-based
[13] = tested on: β-lactamase producing strains of Proteus mirabilis and Staphylococcus aureus; assay: synergism with cephaloridine; format: cell-based
[14] = biological target: T1, Escherischia coli JT4 β-lactamase (Escherichia coli, UniProt P62593); assay: β-lactamase I50, method of Belgian Pat. No. 827926; format: biochemical
T1 construct: host or cells: Escherichia coli JT4
T1 sequence (P62593 24-286 limits assumed): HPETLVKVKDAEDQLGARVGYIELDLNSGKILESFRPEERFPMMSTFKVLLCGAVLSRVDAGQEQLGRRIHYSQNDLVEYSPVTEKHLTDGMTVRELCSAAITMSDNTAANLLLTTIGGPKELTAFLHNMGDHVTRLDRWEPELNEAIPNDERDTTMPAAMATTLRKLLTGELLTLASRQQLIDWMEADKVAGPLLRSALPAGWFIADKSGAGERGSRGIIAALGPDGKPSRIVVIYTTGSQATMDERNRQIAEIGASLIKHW
Protocol: (§1) The I50 in μg/ml of this compound against several β-lactamaseswas determined using the method described in Belgian Pat. No. 827926 and the results are as follows: […]

[15] = biological target: T2, Pseudomonas Dalgleish β-lactamase (Pseudomonas aeruginosa, UniProt P16897); assay: β-lactamase I50, method of Belgian Pat. No. 827926; format: biochemical
T2 construct: host or cells: Pseudomonas (aeruginosa) Dalgleish
T2 sequence (P16897 18-288): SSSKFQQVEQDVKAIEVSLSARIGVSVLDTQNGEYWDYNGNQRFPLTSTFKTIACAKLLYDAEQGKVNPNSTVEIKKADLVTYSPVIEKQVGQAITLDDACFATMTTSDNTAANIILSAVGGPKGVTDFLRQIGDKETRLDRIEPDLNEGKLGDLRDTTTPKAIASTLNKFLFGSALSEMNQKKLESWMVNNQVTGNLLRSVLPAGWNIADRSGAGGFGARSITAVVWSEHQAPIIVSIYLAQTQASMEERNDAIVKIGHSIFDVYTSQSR
Protocol: as §1

[16] = in presence of 5μg/ml clavulanic acid sodium salt

CC1(C)S[C@@H]2[C@H](NC(=O)[C@H](N)c3ccccc3)C(=O)N2[C@H]1C(=O)O [Ampicillin, ampicillin, reference compound]
Minimum Inhibitory Concentrations (Escherichia coli B 11): > 500 µg/mL
Minimum Inhibitory Concentrations (Enterobacter cloacae [1]): 250 µg/mL

CC1(C)S[C@@H]2[C@H](NC(=O)Cc3ccccc3)C(=O)N2[C@H]1C(=O)O [Benzylpenicillin, benzylpenicillin, reference compound]
concentration by which growth is inhibited ([2]; when 5 μg/ml. of clavulanic acid is also present): less than 12.5 μg/ml

COC(=O)[C@H]1/C(=C/CO)O[C@@H]2CC(=O)N21 [clavulanic acid methyl ester]
antibacterial activity in broth (bacteria): broad spectrum activity but of a lower order than shown by clavulanic acid

O=C(O)[C@H]1/C(=C/CO)O[C@@H]2CC(=O)N21 [clavulanic acid sodium salt, 3-(β-hydroxyethylidine)-7-oxo-4-oxa-1-azabicyclo [3,2,0]heptane-2-carboxylic acid sodium salt]
Minimum Inhibitory Concentrations (Enterobacter cloacae [1]): 62 µg/mL
Minimum Inhibitory Concentrations (Serratia marcescens [3]): 125 µg/mL
Minimum Inhibitory Concentrations (Staphylococcus aureus; compound alone, inoculum 0.5 × 10^-2): 62 µg/mL
Minimum Inhibitory Concentrations (Proteus mirabilis 899): < 500 µg/mL
levels of clavulanic acid [4]: useful levels
Minimum Inhibitory Concentration (Bacillus subtilis): 62 µg/mL
Minimum Inhibitory Concentration (Streptococcus faecalis): > 500 µg/mL
Minimum Inhibitory Concentration [5]: 125 µg/mL
Minimum Inhibitory Concentration [6]: 31 µg/mL
Minimum Inhibitory Concentration (Klebsiella aerogenes): 31 to 62 µg/mL
Minimum Inhibitory Concentration (Klebsiella oxytocum): 62 µg/mL
Minimum Inhibitory Concentration [7]: 31 µg/mL
Minimum Inhibitory Concentration (Enterobacter cloacae [8]): 62 µg/mL
Minimum Inhibitory Concentration (Acinetobacter anitratus): 125 µg/mL
Minimum Inhibitory Concentration (Providentia stuartii): 125 µg/mL
Minimum Inhibitory Concentration (Serratia marcescens [9]): 125 µg/mL
Minimum Inhibitory Concentration (Proteus mirabilis 0977): 62 µg/mL
Minimum Inhibitory Concentration (Proteus vulgaris W090): 31 µg/mL
Minimum Inhibitory Concentration (Salmonella typhimurium): 31 µg/mL
Minimum Inhibitory Concentration (Shigella sonnei): 62 µg/mL
Minimum Inhibitory Concentration (Pseudomonas aeruginosa A): 500 µg/mL
MIC (Bacillus subtilis A): 62
MIC (Staph.aureus Oxford): 15
MIC (Staph.aureus Russell): 15

O=C(Cc1cccs1)N[C@@H]1C(=O)N2C(C(=O)[O-])=C(C[n+]3ccccc3)CS[C@H]12 [Cephaloridine, cephaloridine]
Minimum Inhibitory Concentrations [10, 16]: > 0.03 µg/mL
Minimum Inhibitory Concentrations ([10]; synergist (clavulanic acid sodium salt) added at 1 μg/ml. instead of 5 μg/ml., compared with the value at 5 μg/ml): Same value
Minimum Inhibitory Concentrations (Staphylococcus aureus; [16]): 3.7 µg/mL

O=C(O)[C@H]1/C(=C/CO)O[C@@H]2CC(=O)N21 [clavulanic acid, Z-(2R,5R)-3-(β-hydroxyethylidene)-7-oxo-4-oxa-1-azabicyclo[3,2,0]heptane-2-carboxylic acid]
MIC ([2]; Klebsiella aerogenes, compound alone, read-out: concentration by which growth is not inhibited): > 10 µg/mL
inhibition of growth [11]: able to inhibit the growth
synergism of the antibacterial effect of ampicillin [12]: able to synergyze the antibacterial effect of ampicillin
synergism of the antibacterial effect of cephaloridine [13]: able to synergyze the antibacterial effect of cephaloridine

O=C(OCc1ccccc1)[C@H]1/C(=C/COS(=O)(=O)O)O[C@@H]2CC(=O)N21 [Example 50, Benzyl Clavulanate -- O -- sulphonate trimethylamine salt]
IC50 [14]: 9.21 µM
IC50 [15]: 11.4 µM
